# Measurements from US20260130395A1, “Water Dispersible Botanical Compositions” (Aquila Black Limited, priority 2021, published 2026).
# Test: Stability of cannabinoid compounds and Vitamin E components in Beverage 1 (AB White) by LCMSMS
# Assay type: physicochemical
# [1] = AB White stored at 8° C., 570 days
# [2] = AB White stored at 21-25° C., 570 days
compound,measurement,setting,value
"CCCCCc1cc(O)c2c(c1)OC(C)(C)[C@@H]1CCC(C)=C[C@@H]21 [D9 THC, delta-9-tetrahydrocannabinol, reference compound]","Stability of Plant-Derived Cannabinoid Compounds in AB White, 8° C.","AB White stored at 8° C., 0 days",12.2 µg/mL
same,"Stability of Plant-Derived Cannabinoid Compounds in AB White, 8° C.","AB White stored at 8° C., 1 days",12.20 µg/mL
same,"Stability of Plant-Derived Cannabinoid Compounds in AB White, 8° C.","AB White stored at 8° C., 2 days",11.91 µg/mL
same,"Stability of Plant-Derived Cannabinoid Compounds in AB White, 8° C.","AB White stored at 8° C., 3 days",12.25 µg/mL
same,"Stability of Plant-Derived Cannabinoid Compounds in AB White, 8° C.","AB White stored at 8° C., 5 days",12.11 µg/mL
same,"Stability of Plant-Derived Cannabinoid Compounds in AB White, 8° C.","AB White stored at 8° C., 8 days",11.83 µg/mL
same,"Stability of Plant-Derived Cannabinoid Compounds in AB White, 8° C.","AB White stored at 8° C., 9 days",12.14 µg/mL
same,"Stability of Plant-Derived Cannabinoid Compounds in AB White, 8° C.","AB White stored at 8° C., 10 days",12.07 µg/mL
same,"Stability of Plant-Derived Cannabinoid Compounds in AB White, 8° C.","AB White stored at 8° C., 11 days",11.83 µg/mL
same,"Stability of Plant-Derived Cannabinoid Compounds in AB White, 8° C.","AB White stored at 8° C., 12 days",11.88 µg/mL
same,"Stability of Plant-Derived Cannabinoid Compounds in AB White, 8° C.","AB White stored at 8° C., 15 days",12.08 µg/mL
same,"Stability of Plant-Derived Cannabinoid Compounds in AB White, 8° C.","AB White stored at 8° C., 16 days",12.18 µg/mL
same,"Stability of Plant-Derived Cannabinoid Compounds in AB White, 8° C.","AB White stored at 8° C., 17 days",12.05 µg/mL
same,"Stability of Plant-Derived Cannabinoid Compounds in AB White, 8° C.","AB White stored at 8° C., 18 days",12.00 µg/mL
same,"Stability of Plant-Derived Cannabinoid Compounds in AB White, 8° C.","AB White stored at 8° C., 19 days",12.11 µg/mL
same,"Stability of Plant-Derived Cannabinoid Compounds in AB White, 8° C.","AB White stored at 8° C., 22 days",11.97 µg/mL
same,"Stability of Plant-Derived Cannabinoid Compounds in AB White, 8° C.","AB White stored at 8° C., 23 days",12.03 µg/mL
same,"Stability of Plant-Derived Cannabinoid Compounds in AB White, 8° C.","AB White stored at 8° C., 24 days",11.87 µg/mL
same,"Stability of Plant-Derived Cannabinoid Compounds in AB White, 8° C.","AB White stored at 8° C., 25 days",11.99 µg/mL
same,"Stability of Plant-Derived Cannabinoid Compounds in AB White, 8° C.","AB White stored at 8° C., 26 days",11.97 µg/mL
same,"Stability of Plant-Derived Cannabinoid Compounds in AB White, 8° C.","AB White stored at 8° C., 29 days",12.25 µg/mL
same,"Stability of Plant-Derived Cannabinoid Compounds in AB White, 8° C.","AB White stored at 8° C., 30 days",12.05 µg/mL
same,"Stability of Plant-Derived Cannabinoid Compounds in AB White, 8° C.","AB White stored at 8° C., 60 days",11.77 µg/mL
same,"Stability of Plant-Derived Cannabinoid Compounds in AB White, 8° C.","AB White stored at 8° C., 90 days",11.92 µg/mL
same,"Stability of Plant-Derived Cannabinoid Compounds in AB White, 8° C.","AB White stored at 8° C., 120 days",11.79 µg/mL
same,"Stability of Plant-Derived Cannabinoid Compounds in AB White, 8° C.","AB White stored at 8° C., 150 days",12.07 µg/mL
same,"Stability of Plant-Derived Cannabinoid Compounds in AB White, 8° C.","AB White stored at 8° C., 180 days",11.66 µg/mL
same,"Stability of Plant-Derived Cannabinoid Compounds in AB White, 8° C.","AB White stored at 8° C., 210 days",11.79 µg/mL
same,"Stability of Plant-Derived Cannabinoid Compounds in AB White, 8° C.","AB White stored at 8° C., 240 days",11.70 µg/mL
same,"Stability of Plant-Derived Cannabinoid Compounds in AB White, 8° C.","AB White stored at 8° C., 270 days",11.98 µg/mL
same,"Stability of Plant-Derived Cannabinoid Compounds in AB White, 8° C.","AB White stored at 8° C., 300 days",11.70 µg/mL
same,"Stability of Plant-Derived Cannabinoid Compounds in AB White, 8° C.","AB White stored at 8° C., 330 days",11.68 µg/mL
same,"Stability of Plant-Derived Cannabinoid Compounds in AB White, 8° C.","AB White stored at 8° C., 360 days",11.88 µg/mL
same,"Stability of Plant-Derived Cannabinoid Compounds in AB White, 8° C.","AB White stored at 8° C., 390 days",11.85 µg/mL
same,"Stability of Plant-Derived Cannabinoid Compounds in AB White, 8° C.","AB White stored at 8° C., 420 days",11.77 µg/mL
same,"Stability of Plant-Derived Cannabinoid Compounds in AB White, 8° C.","AB White stored at 8° C., 450 days",11.80 µg/mL
same,"Stability of Plant-Derived Cannabinoid Compounds in AB White, 8° C.","AB White stored at 8° C., 480 days",11.60 µg/mL
same,"Stability of Plant-Derived Cannabinoid Compounds in AB White, 8° C.","AB White stored at 8° C., 510 days",11.33 µg/mL
same,"Stability of Plant-Derived Cannabinoid Compounds in AB White, 8° C.","AB White stored at 8° C., 540 days",11.27 µg/mL
same,"Stability of Plant-Derived Cannabinoid Compounds in AB White, 8° C.",[1],11.21 µg/mL
same,stability over the entire period (in words),[1],high degree of stability
same,"Stability of Plant-Derived Cannabinoid Compounds in AB White, 21-25° C.","AB White stored at 21-25° C., 0 days",12.2 µg/mL
same,"Stability of Plant-Derived Cannabinoid Compounds in AB White, 21-25° C.","AB White stored at 21-25° C., 1 days",11.8 µg/mL
same,"Stability of Plant-Derived Cannabinoid Compounds in AB White, 21-25° C.","AB White stored at 21-25° C., 2 days",12.0 µg/mL
same,"Stability of Plant-Derived Cannabinoid Compounds in AB White, 21-25° C.","AB White stored at 21-25° C., 3 days",11.9 µg/mL
same,"Stability of Plant-Derived Cannabinoid Compounds in AB White, 21-25° C.","AB White stored at 21-25° C., 5 days",12.1 µg/mL
same,"Stability of Plant-Derived Cannabinoid Compounds in AB White, 21-25° C.","AB White stored at 21-25° C., 8 days",12.3 µg/mL
same,"Stability of Plant-Derived Cannabinoid Compounds in AB White, 21-25° C.","AB White stored at 21-25° C., 9 days",11.8 µg/mL
same,"Stability of Plant-Derived Cannabinoid Compounds in AB White, 21-25° C.","AB White stored at 21-25° C., 10 days",11.7 µg/mL
same,"Stability of Plant-Derived Cannabinoid Compounds in AB White, 21-25° C.","AB White stored at 21-25° C., 11 days",12.1 µg/mL
same,"Stability of Plant-Derived Cannabinoid Compounds in AB White, 21-25° C.","AB White stored at 21-25° C., 12 days",11.9 µg/mL
same,"Stability of Plant-Derived Cannabinoid Compounds in AB White, 21-25° C.","AB White stored at 21-25° C., 15 days",12.1 µg/mL
same,"Stability of Plant-Derived Cannabinoid Compounds in AB White, 21-25° C.","AB White stored at 21-25° C., 16 days",12.1 µg/mL
same,"Stability of Plant-Derived Cannabinoid Compounds in AB White, 21-25° C.","AB White stored at 21-25° C., 17 days",11.9 µg/mL
same,"Stability of Plant-Derived Cannabinoid Compounds in AB White, 21-25° C.","AB White stored at 21-25° C., 18 days",11.8 µg/mL
same,"Stability of Plant-Derived Cannabinoid Compounds in AB White, 21-25° C.","AB White stored at 21-25° C., 19 days",12.3 µg/mL
same,"Stability of Plant-Derived Cannabinoid Compounds in AB White, 21-25° C.","AB White stored at 21-25° C., 22 days",11.9 µg/mL
same,"Stability of Plant-Derived Cannabinoid Compounds in AB White, 21-25° C.","AB White stored at 21-25° C., 23 days",12.0 µg/mL
same,"Stability of Plant-Derived Cannabinoid Compounds in AB White, 21-25° C.","AB White stored at 21-25° C., 24 days",12.1 µg/mL
same,"Stability of Plant-Derived Cannabinoid Compounds in AB White, 21-25° C.","AB White stored at 21-25° C., 25 days",12.3 µg/mL
same,"Stability of Plant-Derived Cannabinoid Compounds in AB White, 21-25° C.","AB White stored at 21-25° C., 26 days",12.1 µg/mL
same,"Stability of Plant-Derived Cannabinoid Compounds in AB White, 21-25° C.","AB White stored at 21-25° C., 29 days",11.9 µg/mL
same,"Stability of Plant-Derived Cannabinoid Compounds in AB White, 21-25° C.","AB White stored at 21-25° C., 30 days",11.9 µg/mL
same,"Stability of Plant-Derived Cannabinoid Compounds in AB White, 21-25° C.","AB White stored at 21-25° C., 60 days",11.9 µg/mL
same,"Stability of Plant-Derived Cannabinoid Compounds in AB White, 21-25° C.","AB White stored at 21-25° C., 90 days",12.0 µg/mL
same,"Stability of Plant-Derived Cannabinoid Compounds in AB White, 21-25° C.","AB White stored at 21-25° C., 120 days",11.7 µg/mL
same,"Stability of Plant-Derived Cannabinoid Compounds in AB White, 21-25° C.","AB White stored at 21-25° C., 150 days",11.7 µg/mL
same,"Stability of Plant-Derived Cannabinoid Compounds in AB White, 21-25° C.","AB White stored at 21-25° C., 180 days",11.9 µg/mL
same,"Stability of Plant-Derived Cannabinoid Compounds in AB White, 21-25° C.","AB White stored at 21-25° C., 210 days",11.4 µg/mL
same,"Stability of Plant-Derived Cannabinoid Compounds in AB White, 21-25° C.","AB White stored at 21-25° C., 240 days",11.7 µg/mL
same,"Stability of Plant-Derived Cannabinoid Compounds in AB White, 21-25° C.","AB White stored at 21-25° C., 270 days",11.9 µg/mL
same,"Stability of Plant-Derived Cannabinoid Compounds in AB White, 21-25° C.","AB White stored at 21-25° C., 300 days",12.0 µg/mL
same,"Stability of Plant-Derived Cannabinoid Compounds in AB White, 21-25° C.","AB White stored at 21-25° C., 330 days",11.4 µg/mL
same,"Stability of Plant-Derived Cannabinoid Compounds in AB White, 21-25° C.","AB White stored at 21-25° C., 360 days",11.7 µg/mL
same,"Stability of Plant-Derived Cannabinoid Compounds in AB White, 21-25° C.","AB White stored at 21-25° C., 390 days",11.4 µg/mL
same,"Stability of Plant-Derived Cannabinoid Compounds in AB White, 21-25° C.","AB White stored at 21-25° C., 420 days",11.7 µg/mL
same,"Stability of Plant-Derived Cannabinoid Compounds in AB White, 21-25° C.","AB White stored at 21-25° C., 450 days",11.7 µg/mL
same,"Stability of Plant-Derived Cannabinoid Compounds in AB White, 21-25° C.","AB White stored at 21-25° C., 480 days",11.2 µg/mL
same,"Stability of Plant-Derived Cannabinoid Compounds in AB White, 21-25° C.","AB White stored at 21-25° C., 510 days",11.2 µg/mL
same,"Stability of Plant-Derived Cannabinoid Compounds in AB White, 21-25° C.","AB White stored at 21-25° C., 540 days",11.2 µg/mL
same,"Stability of Plant-Derived Cannabinoid Compounds in AB White, 21-25° C.",[2],11.2 µg/mL
same,stability over the entire period (in words),[2],high degree of stability
